Laboratory results: article PMC8398805, “Chemical Characterization and Anti-HIV-1 Activity Assessment of Iridoids and Flavonols from Scrophularia trifoliata” (Molecules, 2021)
Where “and” joins values, the source holds several entries; their conditions need not be identical. Identical values can stand only once. Like-named read-outs stand apart in the source and are kept apart here. Marks after values point to notes of the source that are not given here.

Legend:
[1] = molecular target: T1, HIV-1 IN in the presence of LEDGF/p75 (Human immunodeficiency virus type 1 group M subtype B, UniProt P04585); experiment: HTRF LEDGF-dependent integrase assay; type: biochemical; details: for IC50: concentration required to inhibit IN catalytic activities, in the presence of LEDGF, by 50%; for remaining activity at 100 µM: in the presence of 100 µM compound concentration, read-out: HIV-1 IN LEDGF-dependent percentage of control
T1 construct: Recombinant 6xHis tagged IN protein was expressed and purified as described previously; 6xHis; made in house; host or cells: Escherichia coli BL21 (DE3) for IN
Description: Recombinant 6xHis tagged IN protein was expressed and purified as described previously. Briefly, IN was expressed in Escherichia coli strain BL21 (DE3). Initial purification was done using a Ni-Sepharose column with an imidazole gradient from 20 mM to 500 mM concentration in a 50 mM HEPES (pH 7.5) buffer containing 1 M NaCl, 7.5 mM CHAPS, and 2 mM β-mercaptoethanol. This was followed by a heparin column purification with a NaCl gradient from 0 to 1 M concentrations. His-LEDGF was purified by loading precipitate of cell lysate onto a heparin column and was eluted with an increasing NaCl gradient (200 mM to 1 M) in a 50 mM HEPES (pH 7.5) buffer containing 7.5 mM CHAPS and 2 mM β-mercaptoethanol. Peak fractions were pooled and loaded onto a Superdex 200 GL column and eluted in a buffer containing 50 mM HEPES (pH 7.5), 200 mM NaCl, and 2 mM β-mercaptoethanol. Fractions containing LEDGF were pooled and stored in 15% glycerol at −80 °C.
The HTRF assay allows measuring the inhibition of 3′-processing and strand-transfer IN reactions in the presence of recombinant LEDGF/p75 cellular cofactor [43]. Briefly, 50 nM IN was pre-incubated with an increasing concentration of compounds for 1 h at room temperature in reaction buffer containing 20 mM HEPES pH 7.5, 1 mM DTT, 1% Glycerol, 20 mM MgCl2, 0.05% Brij-35, and 0.1 mg/mL BSA. […] After the incubation, 4 nM of Europium-Streptavidin were added to the reaction mixture, and the HTRF signal was recorded using a Perkin Elmer Victor 3 plate reader using a 314 nm for the excitation wavelength and 668 and 620 nm for the wavelength of the acceptor and the donor substrate emission, respectively.

[2] = molecular target: T2, HIV-1 RT-associated RNase H activity (Human immunodeficiency virus type 1 group M subtype B, UniProt P04585); experiment: RNase H polymerase-independent cleavage assay; type: biochemical; details: for IC50: compound concentration required to inhibit the HIV-1 RNase H activity by 50%; for remaining activity at 100 µM: read-out: HIV-1 RNase H percentage of control
T2 construct: The 1:1 ration between the p66/p51 subunits was also verified; made in house; host or cells: E. coli strain M15 with the p6HRT-prot vector
Description: HIV-1 RT group M subtype B. Heterodimeric RT was expressed and purified essentially as previously described. Briefly, protein was expressed in E. coli strain M15 containing the p6HRT-prot vector, induced with 1.7 mM isopropyl β-D-1-thiogalactopyranoside for 4 h. Protein purification was carried out with a BioLogic LP system (Biorad), using a combination of immobilized metal affinity and ion exchange chromatography. First, crude bacterial extract was clarified by centrifugation and loaded onto a Ni^2+-NTA-Sepharose column pre-equilibrated with a loading buffer (50 mM sodium phosphate buffer pH 7.8, containing 0.3 M NaCl, 10% glycerol, and 10 mM imidazole); RT was eluted with an imidazole gradient in wash buffer (0–0.5 M). Fractions were collected and protein purity was checked by SDS-PAGE and found to be higher than 90%. The 1:1 ration between the p66/p51 subunits was also verified. Enzyme-containing fractions were pooled and diluted 1:1 with 50 mM sodium phosphate buffer pH 7.0, containing 10% glycerol, and then loaded into a Hi-trap heparin HP GE (Healthcare Lifescience) using a loading buffer (50 mM sodium phosphate buffer pH 7.0, containing 10% glycerol and 150 mM NaCl). RT was eluted with Elute Buffer 2 (50 mM Sodium Phosphate pH 7.0, 10% glycerol, 1 M NaCl). Fractions were collected and protein was dialyzed and stored in a buffer containing 50 mM Tris-HCl pH 7.0, 25 mM NaCl, 1 mM EDTA, and 50% glycerol. Catalytic activities and protein concentrations were determined. Enzyme-containing fractions were pooled and aliquots were stored at −80 °C.
HIV RT-associated RNase H activity was measured as described (using the RNase H inhibitor RDS175911 as a control.) In a 100 µL reaction volume containing 50 mM Tris-HCl buffer with pH 7.8, 6 mM MgCl2, 1 mM dithiothreitol (DTT), 80 mM KCl, 0.25 µM hybrid RNA/DNA 5′-[…]-Fluorescin-3′ (HPLC, dry, QC: Mass Check) (available from Metabion (Planegg, Germany)) 5′-Dabcyl-[…]-3′ (HPLC, dry, QC: Mass Check), there were increasing concentrations of an inhibitor, whose dilution was made in water, and 20 ng of wt RT, according to a linear range of dose-response curve. The reaction mixture was incubated for 1 h at 37 °C, stopped by the addition of EDTA, and products were measured with a multilabel counter plate reader Victor 3 (Perkin Elmer model 1420-051 (Waltham, MA, USA)) equipped with filters for 490/528 nm (excitation/emission wavelength).

[3] = system: HIV-1 RT; details: cited from earlier work
[4] = in the presence of 100 µM compound concentration

Compound | IC50 [1] | remaining activity at 100 µM [1] | IC50 [2] | remaining activity at 100 µM [2, 4] | HIV-1 IN inhibition (in words) [1] | HIV-1 RNase H inhibition (in words) [2] | HIV-1 RT IC50 ([3]; baicalin from Scutellaria baicalensis) | HIV-1 RT IC50 ([3]; kaempferol from Securigera securidaca) | HIV-1 RNase H percentage of control [2, 4]
OC[C@H]1O[C@@H](O[C@@H]2OC=C[C@H]3[C@H](O)[C@@H]4O[C@]4(CO)[C@@H]23)[C@H](O)[C@@H](O)[C@@H]1O [Compound 1, catalpol] | > 100 µM | 100% | > 100 µM | 100% | – | – | – | – | –
OCC1=C[C@@H](O)[C@@H]2C=CO[C@@H](O[C@@H]3O[C@H](CO)[C@@H](O)[C@H](O)[C@H]3O)[C@H]12 [Compound 2, aucubin] | > 100 µM | 100% | > 100 µM | 100% | – | – | – | – | –
C[C@]1(O)C[C@@H](O)[C@@H]2C=CO[C@@H](O[C@@H]3O[C@H](CO)[C@@H](O)[C@H](O)[C@H]3O)[C@@H]21 [Compound 3, ajugol] | > 100 µM | 77% | > 100 µM | 100% | – | – | – | – | –
CO[C@H]1[C@@H]2C=CO[C@@H](O[C@@H]3O[C@H](CO)[C@@H](O)[C@H](O)[C@H]3O)[C@@H]2[C@@]2(CO)O[C@@H]12 [Compound 4, methylcatalpol] | > 100 µM | 80% | > 100 µM | 100% | – | – | – | – | –
COC1C2C=COC(OC3OC(CO)C(O)C(O)C3O)C2C2(O)COC12 (stereo not shown) [Compound 5, trifoliatoside A] | 95.5 ± 4.5 µM | – | > 100 µM | 93% | able to inhibit IN, selectively | – | – | – | –
CO[C@H]1[C@@H]2C[C@@H]3OC[C@](O)([C@H]2[C@H](O[C@@H]2O[C@H](CO)[C@@H](O)[C@H](O)[C@H]2O)O3)[C@@H]1O [Compound 6, methylscutelloside] | 100 ± 0.5 µM | – | > 100 µM | 100% | – | – | – | – | –
CC(=O)O[C@@]1(C)C[C@@H](O)C2C=CO[C@@H](O[C@@H]3O[C@H](CO)[C@@H](O)[C@H](O)[C@H]3O)C21 (stereo partly shown) [Compound 7, ajugoside] | 74 ± 3.5 µM | – | > 100 µM | 100% | able to inhibit IN, selectively | – | – | – | –
C[C@@H]1O[C@@H](OC[C@H]2O[C@@H](Oc3c(-c4ccc(O)c(O)c4)oc4cc(O)cc(O)c4c3=O)[C@H](O)[C@@H](O)[C@@H]2O)[C@H](O)[C@H](O)[C@H]1O [Compound 8, rutin] | 0.33 ± 0.04 µM | – | > 100 µM | 100% | submicromolar concentration | – | – | – | –
CC1OC(Oc2cc(O)c3c(=O)c(OC4OC(CO)C(O)C(O)C4O)c(-c4ccc(O)cc4)oc3c2)C(O)C(O)C1O (stereo not shown) [Compound 9, kaempferol-7-O-rhamnosyl-3-O-glucopyranoside] | 0.024 µM and 0.11 µM | – | > 100 µM | 100% | submicromolar concentration | – | – | – | –
O=c1c(OC2O[C@H](CO)[C@@H](O)[C@H](O)[C@H]2O)c(-c2ccc(O)cc2)oc2cc(O)cc(O)c12 (stereo partly shown) [Compound 11, kaempferol-3-O-glucopyranoside] | 0.11 µM and 0.024 µM | – | > 100 µM | 100% | submicromolar concentration | – | – | – | –
C[C@]1(OC(=O)/C=C/c2ccccc2)C[C@@H](O)C2C=CO[C@@H](O[C@@H]3O[C@H](CO)[C@@H](O)[C@H](O)[C@H]3O)C21 (stereo partly shown) [Compound 12, laterioside] | > 100 µM | 80% | > 100 µM | 100% | inactive | inactive | – | – | –
C[C@]1(OC(=O)/C=C\c2ccccc2)C[C@@H](O)C2C=CO[C@@H](O[C@@H]3O[C@H](CO)[C@@H](O)[C@H](O)[C@H]3O)C21 (stereo partly shown) [Compound 13, trifoliatoside B] | 5.96 ± 0.1 µM | – | > 100 µM | 92% | – | – | – | – | –
CCOC(=O)C(=O)CC(=O)/C=C/c1cccn1Cc1ccccc1Cl [RDS1759, reference compound] | – | – | 7.3 ± 0.1 µM | – | – | – | – | – | –
O=C(O)[C@H]1O[C@@H](Oc2cc3oc(-c4ccccc4)cc(=O)c3c(O)c2O)[C@H](O)[C@@H](O)[C@@H]1O [baicalin] | – | – | – | – | – | – | 0.2 µg/mL | – | –
O=c1c(O)c(-c2ccc(O)cc2)oc2cc(O)cc(O)c12 [kaempferol] | – | – | – | – | – | – | – | 50 µg/mL | –
kaempferol-3-O-rutinoside [Compound 10] | – | – | – | – | – | – | – | – | >100 (100%) ^c
